Source: paper PMC2677733 (International Journal of Biological Sciences, 2009)

Target: T1, OlatOR1/OlatOR2 (Ostrinia latipennis, UniProt C1PHB5)
T1 sequence (C1PHB5 1-424): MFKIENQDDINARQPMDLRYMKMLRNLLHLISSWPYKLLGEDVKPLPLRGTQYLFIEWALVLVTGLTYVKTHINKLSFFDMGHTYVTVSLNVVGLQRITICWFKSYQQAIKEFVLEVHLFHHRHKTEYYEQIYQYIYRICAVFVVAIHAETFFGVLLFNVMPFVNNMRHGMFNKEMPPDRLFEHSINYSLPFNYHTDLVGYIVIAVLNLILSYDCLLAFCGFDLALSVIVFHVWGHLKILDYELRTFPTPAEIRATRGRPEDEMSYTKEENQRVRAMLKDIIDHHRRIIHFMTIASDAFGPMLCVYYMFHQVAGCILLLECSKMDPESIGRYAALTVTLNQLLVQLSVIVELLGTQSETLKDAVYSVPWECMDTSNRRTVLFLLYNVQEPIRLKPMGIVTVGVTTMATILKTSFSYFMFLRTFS
T1 sequence (C1PHA8 1-473 partner): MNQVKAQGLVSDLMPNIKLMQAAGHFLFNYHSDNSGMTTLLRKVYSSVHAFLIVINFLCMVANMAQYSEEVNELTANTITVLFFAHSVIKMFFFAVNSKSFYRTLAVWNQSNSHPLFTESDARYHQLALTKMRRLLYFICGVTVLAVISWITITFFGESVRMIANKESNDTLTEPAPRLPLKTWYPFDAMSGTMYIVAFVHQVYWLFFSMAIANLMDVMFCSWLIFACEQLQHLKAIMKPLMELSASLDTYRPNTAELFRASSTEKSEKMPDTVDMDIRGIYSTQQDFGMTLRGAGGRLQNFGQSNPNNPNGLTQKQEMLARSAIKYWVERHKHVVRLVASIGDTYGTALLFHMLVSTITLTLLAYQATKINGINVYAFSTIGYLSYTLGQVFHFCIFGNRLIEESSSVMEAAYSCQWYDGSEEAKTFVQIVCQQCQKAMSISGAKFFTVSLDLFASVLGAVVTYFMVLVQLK
Test: two-electrode voltage clamp, Xenopus oocytes
Format: cell-based
Settings: agonist, inward current; -80 mV; pH 7.6; 10 µM

Row | Compound | two-electrode voltage clamp, Xenopus oocytes
1 | CC/C=C/CCCCCCCCCCO [E11-14:OH, (E)-11-tetradecenol] | OscaOR1 and OlatOR1, strongly responded to E11-14:OH
2 | CCCC/C=C\CCCCCCCCCCOC(C)=O [Z11-16:OAc] | OlatOR1/OlatOR2 cells were found to show exactly the same response pattern as OscaOR1/OscaOR2 cells
